Earlier results on eight compounds are cited in patent publication US12274284B2, “High-energy food supplement based on inverted sugars and ergogenic products for use in physical activity and method for producing same” (priority 2019, dated 2025).

The conditions of data set [1]: oral administration.
The conditions of data set [2]: 1 to 6 g/day for a maximum of six months.
For data set [3] the following is noted: 300 mg/day.
Data set [4] concerns oxidative stress markers. The conditions noted are these: 300 mg/kg, 15 days, mice.
The test system of data set [5] is action of insulin. The conditions noted are these: 5%, 8 weeks, mice.
Assay in data set [6]: not given
The source holds these as a separate data set.

Data set [7] has as its system muscle carnosine concentrations. The conditions noted are these: 4-6 g/day.

Read-outs that look alike come from different tables or passages of the source. A value given as a limit tells only on which side of the number the result lay.

For `Cn1c(=O)c2c(ncn2C)n(C)c1=O` [Caffeine, 1,3,7 trimethylxanthine], the bioavailability entry in data set [1] is given as “approximately 100%”.

As to `C[N+](C)(C)C[C@H](O)CC(=O)[O-]` [carnitine, L-carnitine], in data set [2], the “adverse effect or intoxication” value is “no adverse effect or intoxication” and the “plasma concentrations of carnitine” value is “considerably improved the plasma concentrations of carnitine”.

Take `COC1=C(OC)C(=O)C(C/C=C(\C)CC/C=C(\C)CC/C=C(\C)CC/C=C(\C)CC/C=C(\C)CC/C=C(\C)CC/C=C(\C)CC/C=C(\C)CC/C=C(\C)CCC=C(C)C)=C(C)C1=O` [coenzyme Q10]: the “feeling of tiredness and physical performance during effort tests” value in data set [3] is “reduced the feeling of tiredness and improved physical performance”.

In the case of `CC(=O)C(=O)O` [pyruvate, calcium pyruvate], where the note is “0.05 g/Kg/day after 0.1 g/kg/day for 10 days, 13 to 38 days”, the “patients with a fat loss” value was 79.6%. Further, for the setting “in vivo”, the “patients with a reduction in skinfolds” value was 89.8% and the “patients with a reduction in the abdomen circumference” value is given as 74%.

Regarding `NCCS(=O)(=O)O` [taurine, 2-aminoethanesulfonic acid], in data set [4], the “superoxide radicals, lipid peroxidation, carbonylation” value is “reduced the production of superoxide radicals, lipid peroxidation, and carbonylation”. The “action of insulin in liver and skeletal muscle” value in data set [5] is “boosted the action of insulin in the liver and the skeletal muscle”.

As for `O=C1O[C@H]([C@@H](O)CO)C(O)=C1O` [vitamin C], in data set [6] (400 mg/day), the “tissue concentration of the vitamin” value is “increased the tissue concentration of the vitamin”.

With `NCCC(=O)O` [β-alanine], the “increase in muscle carnosine concentrations” value in data set [7] (after 10 weeks) is recorded as 80%; in data set [7] (following 4 weeks), no more than 64%.

In the case of vitamin E, the “blood plasma concentration of a protein associated with muscle injury” value in data set [6] (1000 UI/day) is on record as “reduced the concentration of a protein associated with muscle injury in the blood plasma”.
